Test results reported in US6777435B1, “Crystals of an oxyiminoalkanoic acid derivative and their use as antidiabetics” (Takeda Chemical Industries, Ltd., priority 1999, dated 2004).

Experiments:
Wistar fatty rats = experiment: Hypoglycemic and hypolipidemic actions in rats; format: in vivo; conditions: 1 mg/kg/day orally for seven days, percentage reduction compared with non-treatment group
Procedure: Crystals of the test compound were suspended in an amount of 1 mg/5 ml in a 0.5% methyl cellulose solution and compulsorily administered orally at the dose of 1 mg/kg/day to Wistar fatty rats (27-30 weeks old; five rats in a group), a model of obesity and type 2 diabetes mellitus, for seven days successively. During that period, diet and water were given freely. Blood was sampled from tail vein and measurement of the components was carried out using serum. Glucose was quantified using L-type Wako Glu2 (Wako Pure Chemicals) while triglyceride was quantified using L-type Wako TG.H (Wako Pure Chemical). The value of treatment group is represented as percentage reduction compared with the non-treatmet group.

KKA^γ mice = experiment: Hypoglycemic and hypolipidemic actions in mice; format: in vivo; conditions: 0.01% in powdery diet for four days, percentage reduction compared with non-treatment group
Procedure: Crystals of the test compound were mixed in a powdery diet (CE-2; Japan Clea) at a concentration of 0.01%, and freely given to KKA^γ mice (11 weeks old; five mice in a group), a model of obesity and type 2 diabetes mellitus, for four days. During that period, water was given freely. Blood was sampled from orbital venous plexus and measurement of the components was carried out using serum. Glucose was quantified using L-type Wako Glu2 (Wako Pure Chemicals) while triglyceride was quantified using Iatro-MA701 TG kit (Iatron Laboratories Inc.). The value of treatment group is represented as percentage reduction compared with the non-treatmet group.

Cc1oc(-c2ccccc2)nc1COc1ccc(CO/N=C(\CCC(=O)O)c2ccccc2)cc1 [Crystals of Example 1, (E)-4-[4-(5-methyl-2-phenyl-4-oxazolylmethoxy)benzyloxyimino]-4-phenylbutyric acid]
Hypoglycemic Action (%) (Wistar fatty rats; serum glucose): 60%
Hypolipemic Action (%) (Wistar fatty rats; serum triglyceride): 85%

Cc1oc(-c2ccccc2)nc1COc1ccc(CO/N=C(\CCC(=O)O)c2ccccc2)cc1 [Crystals of Reference Example 4, (E)-4-[4-(5-methyl-2-phenyl-4-oxazolylmethoxy)benzyloxyimino]-4-phenylbutyric acid]
Hypoglycemic Action (%) (KKA^γ mice; serum glucose): 42%
Hypolipemic Action (%) (KKA^γ mice; serum triglyceride): 61%
